Test results taken from the Kinase Knowledgebase extract (Sharma et al. 2016).

Target: EGFR (human) (UniProt P00533)
Sequence (P00533 whole entry, looked up): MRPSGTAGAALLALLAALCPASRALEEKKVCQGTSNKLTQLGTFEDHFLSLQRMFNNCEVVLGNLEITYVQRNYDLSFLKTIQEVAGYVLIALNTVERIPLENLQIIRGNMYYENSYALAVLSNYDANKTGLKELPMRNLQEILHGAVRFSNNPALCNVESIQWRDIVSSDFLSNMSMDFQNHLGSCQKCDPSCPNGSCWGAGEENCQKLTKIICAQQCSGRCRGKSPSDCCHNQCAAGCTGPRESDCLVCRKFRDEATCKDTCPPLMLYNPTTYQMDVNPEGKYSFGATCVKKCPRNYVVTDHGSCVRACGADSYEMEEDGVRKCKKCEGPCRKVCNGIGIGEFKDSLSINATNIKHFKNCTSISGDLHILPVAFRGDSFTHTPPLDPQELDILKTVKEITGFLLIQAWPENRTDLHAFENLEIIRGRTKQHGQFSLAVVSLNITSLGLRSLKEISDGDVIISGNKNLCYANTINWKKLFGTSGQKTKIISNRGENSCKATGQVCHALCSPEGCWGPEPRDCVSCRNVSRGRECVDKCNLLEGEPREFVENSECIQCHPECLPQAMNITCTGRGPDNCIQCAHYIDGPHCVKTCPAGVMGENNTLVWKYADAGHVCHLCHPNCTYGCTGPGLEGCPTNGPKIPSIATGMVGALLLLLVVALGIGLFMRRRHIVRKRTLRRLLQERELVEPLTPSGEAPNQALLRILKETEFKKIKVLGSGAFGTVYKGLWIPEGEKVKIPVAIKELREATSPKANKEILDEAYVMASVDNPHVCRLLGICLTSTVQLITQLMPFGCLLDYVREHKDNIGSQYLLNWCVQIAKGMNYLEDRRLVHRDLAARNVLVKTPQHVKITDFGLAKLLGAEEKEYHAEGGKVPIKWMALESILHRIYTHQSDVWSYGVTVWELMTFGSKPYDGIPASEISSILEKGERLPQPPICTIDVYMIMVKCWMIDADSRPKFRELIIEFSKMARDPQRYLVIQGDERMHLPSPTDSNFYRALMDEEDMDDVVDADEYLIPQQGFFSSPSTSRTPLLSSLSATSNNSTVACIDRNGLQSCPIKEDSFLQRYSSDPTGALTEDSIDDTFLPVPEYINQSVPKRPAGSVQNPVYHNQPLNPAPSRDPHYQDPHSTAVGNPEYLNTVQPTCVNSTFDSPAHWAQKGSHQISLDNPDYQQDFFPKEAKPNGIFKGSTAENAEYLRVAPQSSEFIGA

| SMILES | IC50 [nM] |
| --- | --- |
| Clc1ccc(-c2ccc(C=NNc3nc4nonc4nc3Nc3ccc(Cl)c(Cl)c3)o2)cc1 | < 1000 |
| O=C(O)c1cc(-c2ccc(C=NNc3nc4nonc4nc3Nc3ccc(F)cc3)o2)ccc1Cl | < 1000 |
| Fc1ccc(Nc2nc3nonc3nc2NN=Cc2ccc(-c3ccc(Cl)cc3Cl)o2)cc1 | < 1000 |
| O=C(O)c1ccc(-c2ccc(C=NNc3nc4nonc4nc3Nc3ccc(F)cc3)o2)cc1 | < 1000 |
| Oc1c(Br)cc(Br)cc1C=NNc1nc2nonc2nc1Nc1ccc(F)c(Cl)c1 | < 1000 |
| CCOC(=O)c1ccccc1C=NNc1nc2nonc2nc1Nc1ccc(Cl)c(Cl)c1 | < 1000 |
| O=C(O)c1cccc(C=NNc2nc3nonc3nc2Nc2ccc(F)c(Cl)c2)c1 | < 1000 |
| Clc1ccc(Nc2nc3nonc3nc2NN=Cc2ccc(-c3ccccc3)o2)cc1Cl | < 1000 |
| COc1cc(Br)cc(C=NNc2nc3nonc3nc2Nc2cccc(Cl)c2)c1O | < 1000 |
| Clc1ccc(Nc2nc3nonc3nc2NN=Cc2ccco2)cc1Cl | < 1000 |
| O=C(O)c1cccc(-c2ccc(C=NNc3nc4nonc4nc3Nc3cccc(Cl)c3)o2)c1 | < 1000 |
| NC(=O)c1cccc(-c2ccc(C=NNc3nc4nonc4nc3Nc3ccc(Cl)c(Cl)c3)o2)c1 | < 1000 |
| Oc1c(Br)cc(Cl)cc1C=NNc1nc2nonc2nc1Nc1ccc(Cl)c(Cl)c1 | < 1000 |
| O=C(O)c1cc(-c2ccc(C=NNc3nc4nonc4nc3Nc3ccccc3F)o2)ccc1O | < 1000 |
| O=C(O)c1ccc(-c2ccc(C=NNc3nc4nonc4nc3Nc3ccc(F)c(Cl)c3)o2)cc1 | < 1000 |
| O=[N+]([O-])c1cccc(-c2ccc(C=NNc3nc4nonc4nc3Nc3cccc(Cl)c3)o2)c1 | < 1000 |
| O=C(O)c1cc(-c2ccc(C=NNc3nc4nonc4nc3Nc3ccc(F)c(Cl)c3)o2)ccc1Cl | < 1000 |
| O=C(O)c1cc(-c2ccc(C=NNc3nc4nonc4nc3Nc3ccccc3F)o2)ccc1Cl | < 1000 |
| Clc1ccc(Nc2nc3nonc3nc2NN=Cc2cc3ccccc3o2)cc1Cl | < 1000 |
| O=c1[nH]c2ccc(Nc3nc4nonc4nc3NN=Cc3cc(I)cc(I)c3OCc3ccc(Cl)cc3Cl)cc2[nH]1 | < 1000 |
| Fc1ccc(Nc2nc3nonc3nc2NN=Cc2ccc(-c3ccc(Cl)cc3)o2)cc1Cl | < 1000 |

| SMILES | IC50 [nM] |
| --- | --- |
| O=C(O)c1cccc(-c2ccc(C=NNc3nc4nonc4nc3Nc3ccc(Cl)c(Cl)c3)o2)c1 | < 1000 |
| O=C1Nc2ccccc2C1=NNc1nc2nonc2nc1Nc1ccc(F)c(Cl)c1 | < 1000 |
| COc1cc(C=NNc2nc3nonc3nc2Nc2ccccc2F)cc([N+](=O)[O-])c1O | < 1000 |
| O=C(O)c1ccc(-c2ccc(C=NNc3nc4nonc4nc3Nc3ccc(Cl)c(Cl)c3)o2)cc1 | < 1000 |
| O=C(O)c1cc(-c2ccc(C=NNc3nc4nonc4nc3Nc3ccc(Cl)c(Cl)c3)o2)ccc1Cl | < 1000 |
| O=C(O)c1cc(-c2ccc(C=NNc3nc4nonc4nc3Nc3ccc(Br)cc3)o2)ccc1Cl | < 1000 |
| Fc1ccc(Nc2nc3nonc3nc2NN=Cc2ccc(-c3ccccc3)o2)cc1Cl | < 1000 |
| Oc1ccc(C=NNc2nc3nonc3nc2Nc2ccc(Cl)c(Cl)c2)c(O)c1 | < 1000 |
| Cc1cccc(Nc2nc3nonc3nc2NN=Cc2ccc(-c3ccc(Cl)c(C(=O)O)c3)o2)c1C | < 1000 |
| Oc1c(Br)cc(Br)cc1C=NNc1nc2nonc2nc1Nc1cccc(Cl)c1 | < 1000 |
| O=C(O)c1cccc(C=NNc2nc3nonc3nc2Nc2ccc(Cl)c(Cl)c2)c1 | < 1000 |
| Cc1cccc(Nc2nc3nonc3nc2NN=Cc2ccc(-c3cccc(C(=O)O)c3)o2)c1 | < 1000 |
| COc1ccc(O)c(C=NNc2nc3nonc3nc2Nc2ccc(Cl)c(Cl)c2)c1 | < 1000 |
| COc1ccc(C=NNc2nc3nonc3nc2Nc2ccc(Cl)c(Cl)c2)c(O)c1 | < 1000 |
| O=[N+]([O-])c1cccc(-c2ccc(C=NNc3nc4nonc4nc3Nc3ccc(F)cc3)o2)c1 | < 1000 |
| NC(=O)c1cccc(-c2ccc(C=NNc3nc4nonc4nc3Nc3ccc(F)c(Cl)c3)o2)c1 | < 1000 |
| O=C1Nc2ccccc2C1=NNc1nc2nonc2nc1Nc1ccc(Cl)c(Cl)c1 | < 1000 |
| Fc1ccc(Nc2nc3nonc3nc2NN=Cc2cc3ccccc3o2)cc1Cl | < 1000 |
| COc1cccc(C=NNc2nc3nonc3nc2Nc2ccc(Cl)c(Cl)c2)c1O | < 1000 |
| O=C(O)c1ccc(C=NNc2nc3nonc3nc2Nc2ccc(F)c(Cl)c2)cc1 | < 1000 |
